The values below are quoted from earlier work in patent US11045444B2, “Composition and method for promoting eyelash and eyebrow growth exclusively containing naturally sourced ingredients” (Plume Cosmetics Inc., priority 2016, dated 2021).

Molecules are shown by their SMILES.

Regarding `C=C[C@@]1(C)CC(=O)[C@]2(O)[C@@]3(C)[C@@H](O)CCC(C)(C)[C@@H]3[C@H](O)[C@H](OC(C)=O)[C@@]2(C)O1` [forskolin], the solubility in water entry is “approximately 0.001%”.
